≈ marks a conversion by molar mass, not a printed value.
Columns and labels:
Format in all cases: functional
Staphylococcus aureus [1] = experiment: Antibacterial activity against beta-lactamase producing Staphylococcus aureus C-14
Escherichia coli = experiment: Antibacterial activity against Escherichia coli NIHJ JC-2
Serratia marcescens = experiment: Antibacterial activity against Serratia marcescens ATCC 13880
Pseudomonas aeruginosa = experiment: Antibacterial activity against Pseudomonas aeruginosa 24
Streptococcus pneumoniae = experiment: Antibacterial activity against Streptococcus pneumoniae I
Staphylococcus aureus [2] = experiment: Antibacterial activity against Staphylococcus aureus 209P JC-1
Klebsiella pneumoniae [3] = experiment: Antibacterial activity against beta-lactamase producing Klebsiella pneumoniae 363
Proteus vulgaris = experiment: Antibacterial activity against Proteus vulgaris CN-329
Klebsiella pneumoniae [4] = experiment: Antibacterial activity against Klebsiella pneumoniae
Proteus mirabilis = experiment: Antibacterial activity against Proteus mirabilis PR-4
Enterobacter cloacae = experiment: Antibacterial activity against Enterobacter cloacae 233

| SMILES | MIC (Staphylococcus aureus [1]) [µg/mL] | MIC (Escherichia coli) [µg/mL] | MIC (Serratia marcescens) [µg/mL] | MIC (Pseudomonas aeruginosa) [µg/mL] | MIC (Streptococcus pneumoniae) [µg/mL] | MIC (Staphylococcus aureus [2]) [µg/mL] | MIC (Klebsiella pneumoniae [3]) [µg/mL] | MIC (Proteus vulgaris) [µg/mL] | MIC (Klebsiella pneumoniae [4]) [µg/mL] | MIC (Proteus mirabilis) [µg/mL] | MIC (Enterobacter cloacae) [µg/mL] |
| --- | --- | --- | --- | --- | --- | --- | --- | --- | --- | --- | --- |
| CC(=O)OCC1=C(C(=O)O)N2C(=O)[C@@H](NC(=O)Cc3cccs3)[C@H]2OC1 | 0.1 (≈ 0.263 µM) | 0.8 (≈ 2.1 µM) | > 100 | > 100 | 0.025 (≈ 0.0657 µM) | 0.013 (≈ 0.0342 µM) | > 100 | 50 (≈ 131 µM) | 0.2 (≈ 0.526 µM) | 0.4 (≈ 1.05 µM) | 100 (≈ 263 µM) |
| Cn1nnnc1SCC1=C(C(=O)O)N2C(=O)[C@@H](NC(=O)[C@H](O)c3ccccc3)[C@H]2OC1 | 0.4 (≈ 0.896 µM) | 0.05 (≈ 0.112 µM) | 6.3 (≈ 14.1 µM) | > 100 | 0.025 (≈ 0.056 µM) | 0.025 (≈ 0.056 µM) | 100 (≈ 224 µM) | 0.1 (≈ 0.224 µM) | 0.05 (≈ 0.112 µM) | 0.1 (≈ 0.224 µM) | 0.4 (≈ 0.896 µM) |
| Cn1nnnc1SCC1=C(C(=O)O)N2C(=O)[C@@H](NC(=O)[C@H](O)c3ccccc3)[C@H]2SC1 [CEFAMANDOLE] | 0.4 (≈ 0.865 µM) | 0.4 (≈ 0.865 µM) | 50 (≈ 108 µM) | > 100 | 0.1 (≈ 0.216 µM) | 0.1 (≈ 0.216 µM) | > 100 | 0.8 (≈ 1.73 µM) | 0.4 (≈ 0.865 µM) | 0.8 (≈ 1.73 µM) | 3.1 (≈ 6.7 µM) |
| CC(=O)OCC1=C(C(=O)O)N2C(=O)[C@@H](NC(=O)Cc3cccs3)[C@H]2SC1 [CEPHALOTHIN] | 0.2 (≈ 0.504 µM) | 6.3 (≈ 15.9 µM) | > 100 | > 100 | 0.1 (≈ 0.252 µM) | 0.05 (≈ 0.126 µM) | > 100 | 50 (≈ 126 µM) | 0.8 (≈ 2.02 µM) | 3.1 (≈ 7.82 µM) | > 100 |

The next lines start with the values.

| MIC (Staphylococcus aureus [1]) [µg/mL] | MIC (Escherichia coli) [µg/mL] | MIC (Serratia marcescens) [µg/mL] | MIC (Pseudomonas aeruginosa) [µg/mL] | MIC (Streptococcus pneumoniae) [µg/mL] | MIC (Staphylococcus aureus [2]) [µg/mL] | MIC (Klebsiella pneumoniae [3]) [µg/mL] | MIC (Proteus vulgaris) [µg/mL] | MIC (Klebsiella pneumoniae [4]) [µg/mL] | MIC (Proteus mirabilis) [µg/mL] | MIC (Enterobacter cloacae) [µg/mL] | SMILES |
| --- | --- | --- | --- | --- | --- | --- | --- | --- | --- | --- | --- |
| 0.4 (≈ 0.793 µM) | 0.05 (≈ 0.0991 µM) | 3.1 (≈ 6.14 µM) | > 100 | 0.2 (≈ 0.396 µM) | 0.4 (≈ 0.793 µM) | 0.1 (≈ 0.198 µM) | 0.2 (≈ 0.396 µM) | 0.1 (≈ 0.198 µM) | 0.2 (≈ 0.396 µM) | 3.1 (≈ 6.14 µM) | CO[C@@]1(NC(=O)[C@H](OC=O)c2ccccc2)C(=O)N2C(C(=O)O)=C(CSc3nnnn3C)CO[C@@H]21 |
| 3.1 (≈ 5.96 µM) | 1.6 (≈ 3.07 µM) | 12.5 (≈ 24 µM) | > 100 | 1.6 (≈ 3.07 µM) | 0.8 (≈ 1.54 µM) | 0.8 (≈ 1.54 µM) | 0.8 (≈ 1.54 µM) | 0.8 (≈ 1.54 µM) | 1.6 (≈ 3.07 µM) | 12.5 (≈ 24 µM) | CO[C@]1(NC(=O)[C@H](OC=O)c2ccccc2)C(=O)N2C(C(=O)O)=C(CSc3nnnn3C)CS[C@@H]21 |
| 6.3 | 0.1 | 0.4 | 25 | 3.1 | 6.3 | 0.05 | 0.1 | 0.1 | 0.1 | 0.2 | CO[C@@]1(NC(=O)C(C(=O)[O-])c2ccc(O)cc2)C(=O)N2C(C(=O)[O-])=C(CSc3nnnn3C)CO[C@@H]21.[Na+].[Na+] (some centres not stated) [MOXALACTAM DISODIUM] |

From ChEMBL document CHEMBL3227942, “Synthetic studies on beta-lactam antibiotics. Part 101. Synthesis of 7beta-[2-carboxy-2-(4-hydroxyphenyl)acetamido]-7alpha-methoxy-3-[[(1-methyl-1H-tetrazol-5-yl)thio]-methyl]-1-oxa-1-dethia-3-cephem-4-carboxylic acid disodium salt (6059-S) and its related 1-oxacephems” (1979)
